The data set is described as follows: In vivo pharmacokinetics in ICR mouse. The protocol: The pharmacokinetic properties of the compounds of the present disclosure were assessed in ICR mice (male, 6-8 weeks, 20.0-25.3 g) after p.o. and i.v. administration.
The ICR mice were purchased from Vital River Laboratory Technology Co., Ltd. (Beijing, China), housed in solid bottom polypropylene cages with sterilized bedding, kept in a room with 40% to 70% humidity, 20 to 25° C. room temperature, 10 to 20 air changes/hour, and on a 12-hour light/dark cycle except when interruptions are necessitated by study activities. The mice were fed with sterilized diet from Shanghai SLAC Laboratory Animal Co., Ltd. (Shanghai, China) and sterilized water. All animals were examined upon receipt and were acclimated for at least 3 days. Only the ones that appear to be healthy were selected for the study basing on overall health, body weight, or other relevant data as appropriate. Individual animal in each group was identified by ear notch.
The mice were fasted overnight prior to treatment, but having free access to drinking water all the time. Before dosing, each mouse was weighed and the actual dose volume for each mouse was calculated by using the formula below: Dose Volume (mL) [Nominal Dose (mg·kg^−1)/Dose Concentration (mg·mL^−1)]×Animal Body Weight (kg)
The actual body weights and the actual dose volumes were recorded accordingly.
For each test group, nine mice were used, and mice in different groups were given a single p.o dose of the test compound at 10 mg·kg^−1, or a single i.v. dose of 2 mg·kg^−1 respectively. Blood samples (e.g., at least […]) were collected into EDTA-K2 tubes at pre-determined time points, for example, pre-dose, 5 min, 15 min, 30 min, 1 h, 2 h, 4 h, 8 h, 12 h, and 24 h post-dose. Each mouse was collected the blood sample at three discontinuous time points, and three mice were used for sampling at each time point. The collected samples were centrifuged at 5500 rpm for 10 min to obtain plasma samples, which were later measured by LC-MS/MS. Data of plasma concentration vs. time were processed by linear regression analysis. All pharmacokinetic parameters were calculated using non-compartment model of Pharsight Phoenix 6.3.
The pharmacokinetics (PK) studies of the compounds were conducted in ICR mice (male, 6-8 weeks, 20.0-25.3 g, Vital River Laboratory Technology Co., Ltd.) administrated a single p.o. dose of 10 mg·kg^−1 or a single i.v. dose of 2 mg·kg^−1 according to the method disclosed in Test 4 of the Biological evaluation section.
Each experiment was independently performed in triplicate. The plasma concentration of an exemplary Compound 23 after a p.o. administration of 10 mg·kg^−1 in ICR mouse is plotted as function of time in FIG. 6. The plasma concentration of the exemplary Compound 23 after an i.v. injection of 2 mg·kg^−1 in ICR mouse is plotted as function of time in FIG. 7. Each data represents the mean plasma concentration of the three experiments with standard error of mean (SEM) as error bars.

[1] abbreviates: male, plasma, iv, i.v. dose of 2 mg · kg^−1.
Where [2] appears, read: male, plasma, po, p.o. dose of 10 mg · kg^−1.

Read-outs that look alike come from different tables or passages of the source.

What is called AUC(0-t) is exposure summed from dosing to a finite time, without extrapolation to infinity. As usually defined, the clearance is the rate of elimination divided by the concentration. A high value points to a high capacity for elimination. Usually half-life stands for the time needed for the level to fall by half in the phase considered. A word on the Cmax: it is the highest concentration seen after dosing. One may read the Tmax as the time at which the peak concentration occurs. Under “i.v. dose of 2 mg · kg^−1”, `CCN1Cc2c(ccnc2N[C@@H](C)c2ccc(Oc3ccccc3)c(F)c2)C1=O` [Compound 23, (S)-2-ethyl-4-((1-(3-fluoro-4-phenoxyphenyl)ethyl)amino)-2,3-dihydro-1H-pyrrolo[3,4-c]pyridin-1-one] returned an AUMC0-inf of 1283 ng · h^2 · mL^−1, an AUMC0-t of 1138 ng · h^2 · mL^−1, a Kel of 0.244 h⁻¹ and an MRTIV of 0.98 h. In addition, under setting [1], the AUC(0-t) was determined as 1300 ng·h/mL, the clearance was found to be 25.4 mL/min/kg and the half-life was 2.8 h. For the same molecule, the AUC0-inf (male, plasma, iv, i.v. dose of 2 mg · kg^−1, read-out: AUC0-inf) stood at 1310 ng·h/mL. Besides, under “male, plasma, iv, i.v. dose of 2 mg · kg^−1, read-out: Vdss”, the Vd was found to be 1.49 L/kg. Moreover, under setting [2], the AUC(0-t) came to 2890 ng·h/mL, the Cmax was 1180 ng/mL, the Tmax was 0.25 h and the half-life is 1.8 h. For the setting “p.o. dose of 10 mg · kg^−1”, the AUC0-inf was found to be 2917 ng · h · mL^1, the AUMC0-inf is on record as 7550 ng · h^2 · mL^−1, the AUMC0-t is reported as 7099 ng · h^2 · mL^−1 and the F came out at 44%. For the setting “p.o. dose of 10 mg · kg^−1”, this molecule gave a Kel of 0.385 h⁻¹ and an MRTPO of 2.6 h.

The record behind these values is US10752626B2, “Iso-citrate dehydrogenase (IDH) inhibitor” (SHANGHAI METON PHARMACEUTICAL CO., LTD, priority 2016, dated 2020).
